Assay results as given in US20250332108A1 (Veradermics, Incorporated, priority 2024, published 2025).
Read-outs that look alike come from different tables or passages of the source.

How the values were obtained:
[1] = test system: rat bone marrow; settings: rat bone marrow micronucleus assay; cited from earlier work
[2] = test system: rats; settings: cited from earlier work
[3] = test system: patients; settings: cited from earlier work
[4] = test system: mice; settings: dietary, cited from earlier work
[5] = test system: Chinese hamster cells; settings: Chinese hamster cells at long exposure times; cited from earlier work
[6] = test system: human lymphocytes; settings: cited from earlier work
[7] = test system: hypertensive patients; settings: intravenous infusion; cited from earlier work
[8] = test system: rats; settings: cited from earlier work; remark: listed apart in the source
[9] = cited from earlier work
[10] = test system: subjects with hair loss; settings: cited from earlier work
[11] = test system: male adults with AGA; settings: 5 mg oral at bedtime, cited from earlier work
[12] = test system: dogs; settings: short-term administration 0.5 mg to 10 mg/kg/day; cited from earlier work
[13] = test system: rat hepatocyte; settings: in vitro rat hepatocyte unscheduled DNA synthesis assay; cited from earlier work
[14] = test system: rabbits; settings: cited from earlier work
[15] = test system: Salmonella; settings: Salmonella (Ames) test; cited from earlier work
[16] = test system: mouse bone marrow; settings: mouse bone marrow micronucleus assay; cited from earlier work
[17] = cited from earlier work; for Duration plasma concentrations above 20 ng/ml: immediate release
[18] = test system: person with androgenetic alopecia; experiment: Case studies: oral minoxidil in males with androgenetic alopecia (blood pressure, heart rate, hair growth)
[19] = oral, dose level 2.5 mg, healthy volunteers
[20] = oral, dose level 5 mg, healthy volunteers
[21] = oral, dose level 10 mg, healthy volunteers

Nc1cc(N2CCCCC2)nc(N)[n+]1[O-] [Minoxidil]
Mutagenicity [1]: not mutagenic | Fetal resorption [2]: not seen | Teratogenic effects [2]: no evidence of teratogenic effects | Temporary decrease in hematocrit, hemoglobin, and erythrocyte count (hemodilution) ([3]; chronic therapy for severe hypertension, initially): approximately 7% | Patients in whom hypertrichosis was hardly or not at all tolerable ([3]; human, in vivo): less than 10% | Plasma concentrations above which hemodynamic effects are typically seen ([3]; human, in vivo): > 20 ng/mL | Patients exhibiting ECG alterations in direction and magnitude of T waves ([3]; soon after starting therapy): approximately 60% | Incidence of hepatic nodules ([4]; up to 2 years, 63 mg/kg/day): increased incidence of hepatic nodules in males | Incidence of malignant lymphomas ([4]; up to 2 years, 10, 25, and 63 mg/kg/day): increased incidence of malignant lymphomas in females at all dose levels | Cytogenetic assay result [5]: equivocal result | Cytogenetic assay result [6]: negative | Steady state plasma concentrations associated with significant (>5 beats per minute) changes in heart rate [7]: above 20 ng/mL | Carcinogenicity ([8]; doses 15 times the usual human dosage for 22 months): No evidence of carcinogenicity | Carcinogenicity findings ([8]; oral administration, two-year study): no positive findings | Predominant metabolite in urine ([9]; first 12 h, hypertensive patients): A glucuronide conjugate | Renal clearance ([9]; human, in vivo): 73.3 mL/min | Radioactivity found in feces ([9]; hypertensive patients): 3% | Total radioactivity recovered from urine ([9]; hypertensive patients): 97% | Time to peak plasma levels ([9]; oral): ≤ 1 h | Fraction of oral minoxidil metabolized ([9]; primarily by conjugation with glucuronic acid): About 90% | Radiolabeled minoxidil and metabolites recovered from urine ([9]; within 24 h after oral administration, hypertensive patients): Over 80% | Serious adverse events (SAEs) reported ([10]; topical foam 5% versus topical solution 2% in female pattern hair loss, 322 subjects, NCT01145625): Ten serious adverse events (SAEs) were reported | SAEs reported in subjects treated with minoxidil ([10]; topical foam 5% versus vehicle topical foam, 404 subjects, NCT01226459): Six SAEs were reported | Subjects reporting edema ([11]; 24 week follow up, 34 subjects): 2.9% | Subjects reporting headache ([11]; 24 week follow up, 34 subjects): 20.6% | Subjects reporting vertigo ([11]; 24 week follow up, 34 subjects): 2.9% | Subjects reporting hypertrichosis ([11]; 24 weeks, 34 subjects): 55.9% | Adverse cardiovascular outcomes ([11]; 24 weeks): No adverse cardiovascular outcomes were observed | Cardiac lesions [12]: various cardiac lesions have been found | Mutagenicity [13]: not mutagenic | Fetal resorption ([14]; 5 times the maximum recommended oral antihypertensive human dose): increased fetal resorption | Teratogenic effects [14]: no evidence of teratogenic effects | Mutagenicity [15]: not mutagenic | Mutagenicity [16]: not mutagenic | Dose dependence of PK and urinary excretion ([17]; 2.5 mg, 5 mg, or 10 mg oral, healthy volunteers): dose-independent PK | Effect on blood pressure ([17]; 2.5 mg, 5 mg, or 10 mg oral, normotensive subjects): little effect on blood pressure in normotensive subjects | Duration plasma concentrations above 20 ng/ml ([17]; 5 mg dose level): around 1 h | Duration plasma concentrations above 20 ng/ml ([17]; 10 mg dose level): around 2 h | Observed half-life ([17]; immediate release formulation, oral): around 1 h | AUC(last) [17, 19]: 25.3 ng·h/mL | Cmax [17, 19]: 16.8 ng/mL | T1/2 [17, 19]: 64.2 min | Tmax [17, 19]: 34 min | AUC(last) [17, 20]: 55.1 ng·h/mL | Cmax [17, 20]: 37.2 ng/mL | T1/2 [17, 20]: 76.2 min | Tmax [17, 20]: 23.3 min | AUC(last) [17, 21]: 112 ng·h/mL | Cmax [17, 21]: 74.7 ng/mL | T1/2 [17, 21]: 80.4 min | Tmax [17, 21]: 25.1 min | Adverse events ([18]; 0.625 mg four times a day): No unwanted hair growth or other adverse events were noticed | Effect on blood pressure ([18]; 0.625 mg four times a day): did not experience significant reductions in blood pressure | Adverse events ([18]; 1.25 mg QID): No unwanted hair growth or other adverse events, including any cardiac effects, were noticed
